The text below walks through data of patent US12479847B2 (DANA-FARBER CANCER INSTITUTE, INC., priority 2019, dated 2025).

Experiment in all cases: KINOMEscan (ScanMAX) kinase profiling
Holding throughout (type): binding

Assay [1] has as its target T1, panel of 468 kinases (Homo sapiens, UniProt P00519).
T1 construct: purchased KINOMEscan (ScanMAX) service
As to conditions: 1 μM, read-out: % control.

For assay [2], the target named is T2, panel of 468 kinases (Homo sapiens, UniProt P19784).
T2 construct: purchased KINOMEscan (ScanMAX) service
T2 sequence (P19784 whole entry): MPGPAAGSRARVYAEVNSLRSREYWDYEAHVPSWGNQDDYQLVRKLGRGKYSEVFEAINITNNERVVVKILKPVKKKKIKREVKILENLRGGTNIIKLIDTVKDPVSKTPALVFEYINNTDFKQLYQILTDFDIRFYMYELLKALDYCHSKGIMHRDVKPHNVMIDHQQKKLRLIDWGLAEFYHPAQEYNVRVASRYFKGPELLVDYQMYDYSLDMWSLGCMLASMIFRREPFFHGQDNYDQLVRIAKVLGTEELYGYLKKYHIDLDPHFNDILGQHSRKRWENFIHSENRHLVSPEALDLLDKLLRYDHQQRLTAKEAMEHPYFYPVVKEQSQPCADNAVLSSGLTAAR
The settings on record: CSNK2A2; 1 μM; read-out: % control.

Assay [3] concerns the target T3, panel of 468 kinases (Homo sapiens, UniProt Q9UL54).
T3 construct: purchased KINOMEscan (ScanMAX) service
T3 sequence (Q9UL54 1-1235): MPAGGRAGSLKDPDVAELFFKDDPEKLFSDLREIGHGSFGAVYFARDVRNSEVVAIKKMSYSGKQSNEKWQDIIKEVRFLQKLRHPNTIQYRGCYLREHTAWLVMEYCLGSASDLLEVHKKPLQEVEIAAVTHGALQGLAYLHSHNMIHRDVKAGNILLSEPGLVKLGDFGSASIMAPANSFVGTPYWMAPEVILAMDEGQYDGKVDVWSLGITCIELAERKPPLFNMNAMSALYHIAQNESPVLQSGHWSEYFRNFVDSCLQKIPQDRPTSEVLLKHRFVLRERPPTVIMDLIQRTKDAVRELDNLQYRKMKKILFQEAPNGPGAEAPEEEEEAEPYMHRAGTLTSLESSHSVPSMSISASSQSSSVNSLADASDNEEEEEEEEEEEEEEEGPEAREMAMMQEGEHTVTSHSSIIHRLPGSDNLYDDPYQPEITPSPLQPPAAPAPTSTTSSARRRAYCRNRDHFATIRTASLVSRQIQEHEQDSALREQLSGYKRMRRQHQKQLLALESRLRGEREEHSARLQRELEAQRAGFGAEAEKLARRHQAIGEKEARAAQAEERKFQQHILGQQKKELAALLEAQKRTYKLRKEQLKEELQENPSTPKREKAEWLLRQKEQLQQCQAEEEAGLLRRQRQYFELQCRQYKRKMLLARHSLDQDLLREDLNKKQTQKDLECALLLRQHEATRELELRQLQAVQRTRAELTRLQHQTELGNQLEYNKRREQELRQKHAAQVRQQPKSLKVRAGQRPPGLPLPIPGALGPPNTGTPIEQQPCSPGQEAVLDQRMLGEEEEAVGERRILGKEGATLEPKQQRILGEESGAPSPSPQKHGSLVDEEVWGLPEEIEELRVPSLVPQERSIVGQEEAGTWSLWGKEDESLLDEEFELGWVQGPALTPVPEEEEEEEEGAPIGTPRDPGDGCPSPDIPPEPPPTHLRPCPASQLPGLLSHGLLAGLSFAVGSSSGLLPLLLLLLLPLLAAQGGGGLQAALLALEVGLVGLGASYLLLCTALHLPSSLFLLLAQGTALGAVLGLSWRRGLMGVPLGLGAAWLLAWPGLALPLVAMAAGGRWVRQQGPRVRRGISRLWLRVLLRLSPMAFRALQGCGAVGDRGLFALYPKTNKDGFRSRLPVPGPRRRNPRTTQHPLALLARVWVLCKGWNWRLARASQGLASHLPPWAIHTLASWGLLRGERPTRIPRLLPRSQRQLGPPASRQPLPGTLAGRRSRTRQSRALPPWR
The settings on record: TAOK2; 1 μM; read-out: % control.

The target of assay [4] is T4, panel of 468 kinases (Homo sapiens, UniProt O94804).
T4 construct: purchased KINOMEscan (ScanMAX) service
T4 sequence (O94804 whole entry): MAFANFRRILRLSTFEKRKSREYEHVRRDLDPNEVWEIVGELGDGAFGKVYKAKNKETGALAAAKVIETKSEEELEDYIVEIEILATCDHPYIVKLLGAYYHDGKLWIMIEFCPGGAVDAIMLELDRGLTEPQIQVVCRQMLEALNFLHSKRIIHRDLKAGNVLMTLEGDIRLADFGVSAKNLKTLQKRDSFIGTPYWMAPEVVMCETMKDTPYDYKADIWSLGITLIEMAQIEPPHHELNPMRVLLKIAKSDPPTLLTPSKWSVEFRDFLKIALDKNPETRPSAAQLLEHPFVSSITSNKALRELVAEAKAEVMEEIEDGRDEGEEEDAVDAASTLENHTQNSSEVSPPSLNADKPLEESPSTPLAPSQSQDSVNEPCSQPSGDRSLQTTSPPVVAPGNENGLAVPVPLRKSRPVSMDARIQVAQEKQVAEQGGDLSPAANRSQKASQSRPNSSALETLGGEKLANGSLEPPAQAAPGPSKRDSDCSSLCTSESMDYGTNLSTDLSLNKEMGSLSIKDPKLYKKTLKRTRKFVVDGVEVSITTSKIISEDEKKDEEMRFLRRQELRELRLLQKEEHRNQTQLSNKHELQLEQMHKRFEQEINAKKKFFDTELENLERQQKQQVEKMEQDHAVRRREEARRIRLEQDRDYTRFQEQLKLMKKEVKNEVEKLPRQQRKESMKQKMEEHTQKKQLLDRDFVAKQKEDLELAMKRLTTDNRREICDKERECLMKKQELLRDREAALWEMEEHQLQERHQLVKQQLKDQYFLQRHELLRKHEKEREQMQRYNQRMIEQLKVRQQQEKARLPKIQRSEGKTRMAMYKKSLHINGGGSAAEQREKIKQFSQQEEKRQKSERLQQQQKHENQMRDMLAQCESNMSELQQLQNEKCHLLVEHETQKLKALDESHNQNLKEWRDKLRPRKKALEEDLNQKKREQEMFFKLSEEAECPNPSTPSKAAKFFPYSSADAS
As to conditions: LOK; 1 μM; read-out: % control.

The target of assay [5] is T5, panel of 468 kinases (Homo sapiens, UniProt Q13627).
T5 construct: purchased KINOMEscan (ScanMAX) service
The settings on record: DYRK1A; 1 μM; read-out: % control.

Assay [6] has as its target T6, panel of 468 kinases (Homo sapiens, UniProt O95835).
T6 construct: purchased KINOMEscan (ScanMAX) service
T6 sequence (O95835 1-1130): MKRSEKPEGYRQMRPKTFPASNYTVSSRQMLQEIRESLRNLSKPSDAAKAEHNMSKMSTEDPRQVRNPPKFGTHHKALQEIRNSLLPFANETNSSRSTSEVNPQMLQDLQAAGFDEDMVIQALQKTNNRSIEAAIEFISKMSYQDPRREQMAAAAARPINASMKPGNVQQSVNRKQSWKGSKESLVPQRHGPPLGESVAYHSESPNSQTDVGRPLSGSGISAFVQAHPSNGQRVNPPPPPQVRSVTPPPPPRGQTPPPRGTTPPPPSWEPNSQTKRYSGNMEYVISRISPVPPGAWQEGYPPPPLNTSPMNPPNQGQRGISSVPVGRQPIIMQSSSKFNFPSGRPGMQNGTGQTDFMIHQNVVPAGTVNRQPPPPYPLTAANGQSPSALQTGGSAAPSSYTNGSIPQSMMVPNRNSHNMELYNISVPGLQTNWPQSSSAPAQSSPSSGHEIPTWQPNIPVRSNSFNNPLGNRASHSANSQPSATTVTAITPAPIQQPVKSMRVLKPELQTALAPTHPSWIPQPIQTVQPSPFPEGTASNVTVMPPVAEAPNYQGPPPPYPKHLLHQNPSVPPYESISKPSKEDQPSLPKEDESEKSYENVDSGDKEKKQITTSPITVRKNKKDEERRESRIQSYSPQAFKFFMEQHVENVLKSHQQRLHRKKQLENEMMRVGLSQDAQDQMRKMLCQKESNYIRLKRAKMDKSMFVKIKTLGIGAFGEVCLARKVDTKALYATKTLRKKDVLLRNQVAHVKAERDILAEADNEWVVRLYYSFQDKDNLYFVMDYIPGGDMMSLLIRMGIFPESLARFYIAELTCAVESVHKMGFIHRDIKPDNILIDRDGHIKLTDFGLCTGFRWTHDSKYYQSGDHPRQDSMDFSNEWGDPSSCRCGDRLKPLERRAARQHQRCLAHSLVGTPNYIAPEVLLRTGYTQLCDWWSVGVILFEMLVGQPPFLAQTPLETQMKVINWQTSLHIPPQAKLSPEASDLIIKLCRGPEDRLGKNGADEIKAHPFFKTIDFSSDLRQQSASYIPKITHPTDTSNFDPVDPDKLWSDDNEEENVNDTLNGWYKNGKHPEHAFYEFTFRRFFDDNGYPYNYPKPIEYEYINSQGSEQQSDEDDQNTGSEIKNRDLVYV
The settings on record: LATS1; 1 μM; read-out: % control.

Where two headings read alike, the source gives them in different places.

T1 sequence (P00519 whole entry): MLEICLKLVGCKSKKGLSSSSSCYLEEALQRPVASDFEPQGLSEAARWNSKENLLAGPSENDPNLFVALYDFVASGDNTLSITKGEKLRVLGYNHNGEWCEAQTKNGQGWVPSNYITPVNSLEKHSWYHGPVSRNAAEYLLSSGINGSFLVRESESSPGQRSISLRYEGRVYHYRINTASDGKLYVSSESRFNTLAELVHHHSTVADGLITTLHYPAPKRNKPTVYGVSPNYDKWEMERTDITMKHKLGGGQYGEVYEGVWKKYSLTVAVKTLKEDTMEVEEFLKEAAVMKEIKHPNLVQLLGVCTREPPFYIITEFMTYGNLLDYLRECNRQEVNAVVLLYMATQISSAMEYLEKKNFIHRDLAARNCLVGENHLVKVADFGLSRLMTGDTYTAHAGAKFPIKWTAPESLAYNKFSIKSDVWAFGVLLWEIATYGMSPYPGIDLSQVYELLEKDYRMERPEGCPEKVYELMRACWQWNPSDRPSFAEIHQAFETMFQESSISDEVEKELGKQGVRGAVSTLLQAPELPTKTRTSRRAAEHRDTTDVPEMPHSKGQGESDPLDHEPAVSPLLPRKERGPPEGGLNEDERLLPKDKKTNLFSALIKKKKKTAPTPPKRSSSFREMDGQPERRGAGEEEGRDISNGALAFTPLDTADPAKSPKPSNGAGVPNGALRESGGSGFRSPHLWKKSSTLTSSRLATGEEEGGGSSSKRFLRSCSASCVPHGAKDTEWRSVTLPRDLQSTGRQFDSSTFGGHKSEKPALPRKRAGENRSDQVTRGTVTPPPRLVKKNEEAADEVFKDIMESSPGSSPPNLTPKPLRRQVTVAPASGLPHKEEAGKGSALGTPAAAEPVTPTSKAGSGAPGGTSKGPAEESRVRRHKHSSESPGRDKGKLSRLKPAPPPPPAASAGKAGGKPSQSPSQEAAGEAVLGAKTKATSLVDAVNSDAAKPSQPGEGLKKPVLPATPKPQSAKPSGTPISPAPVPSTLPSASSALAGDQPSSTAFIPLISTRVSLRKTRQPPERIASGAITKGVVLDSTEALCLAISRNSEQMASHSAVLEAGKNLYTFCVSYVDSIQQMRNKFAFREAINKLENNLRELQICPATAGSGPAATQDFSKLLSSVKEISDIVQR

Consider `CNc1nc(Nc2ccc(C(=O)N3CCC(N4CCOCC4)CC3)c3c2OCO3)nc2[nH]cc(Cl)c12` [Compound 75, (7-((5-chloro-4-(methylamino)-7H-pyrrolo[2,3-d]pyrimidin-2-yl)amino)benzo[d][1,3]dioxol-4-yl)(4-morpholinopiperidin-1-yl)methanone], for which the remaining binding at 1 µM at panel of 468 kinases [1] (ABL1-nonphosphorylated) was determined as 94%; at panel of 468 kinases [1] (ABL1-phosphorylated) it was 80%; on panel of 468 kinases [2] it was 49%; on panel of 468 kinases [3], 77%; on panel of 468 kinases [4] it was 96%; on panel of 468 kinases [5] it was 8.9%. Also, the remaining binding at 1 µM on panel of 468 kinases [6] amounted to 100%.
Regarding `CNc1nc(Nc2ccc(P3(=O)CCN(C4CCOCC4)CC3)cc2OC)nc2[nH]cc(Cl)c12` [Compound 77, 4-(4-((5-chloro-4-(methylamino)-7H-pyrrolo[2,3-d]pyrimidin-2-yl)amino)-3-methoxyphenyl)-1-(tetrahydro-2H-pyran-4-yl)-1,4-azaphosphinane 4-oxide], the remaining binding at 1 µM at panel of 468 kinases [1] (ABL1-nonphosphorylated) came to 92%; on panel of 468 kinases [1] (ABL1-phosphorylated), 80%; on panel of 468 kinases [2] it was 80%; on panel of 468 kinases [3], 76%; on panel of 468 kinases [4], 90%; at panel of 468 kinases [5], 4.7%. At panel of 468 kinases [6], the remaining binding at 1 µM is 100%.
For the molecule `CNc1nc(Nc2ccc(S(=O)(=O)N3CCC(N4CCOCC4)CC3)cc2OC)nc2[nH]cc(Cl)c12` [Compound 12, 5-chloro-N2-(2-methoxy-4-((4-morpholinopiperidin-1-yl)sulfonyl)phenyl)-N4-methyl-7H-pyrrolo[2,3-d]pyrimidine-2,4-diamine], the remaining binding at 1 µM stood at 80% on panel of 468 kinases [1] (ABL1-nonphosphorylated); 72% at panel of 468 kinases [1] (ABL1-phosphorylated); 97% on panel of 468 kinases [2]; 73% at panel of 468 kinases [3]; 94% at panel of 468 kinases [4]; 14% at panel of 468 kinases [5]. For the same molecule, at panel of 468 kinases [6], the remaining binding at 1 µM turned out to be 100%.
